This is an account of results in ChEMBL document CHEMBL1151340, “Antimicrobial agents from higher plants. Antimicrobial isoflavanoids and related substances from Glycyrrhiza glabra L. var. typica” (1980).

Molecules are shown by their SMILES. ≈ marks a conversion by molar mass, not a printed value. Calls of active or inactive are those of the source. The rule behind the calls is not given here.

Experiment [1] has as its system Staphylococcus aureus. Nature of the experiment: Antibacterial activity against Staphylococcus aureus ATCC 13709 by agar-dilution streak method. The format is functional.
In experiment [2] the test system is Escherichia coli. Nature of the experiment: Antibacterial activity against Escherichia coli ATCC 9637 at 100 mcg/ml by agar-dilution streak method. The format is functional, organism-based.
Experiment [3] has as its system Salmonella enterica subsp. enterica serovar Gallinarum. The experiment can be described thus: Antibacterial activity against Salmonella gallinarum ATCC 9184 at 100 mcg/ml by agar-dilution streak method. The format is functional, organism-based.
Experiment [4] concerns Klebsiella pneumoniae. The experiment can be described thus: Antibacterial activity against Klebsiella pneumoniae ATCC 10031 at 100 mcg/ml by agar-dilution streak method. The format is functional, organism-based.
In experiment [5] the test system is Mycolicibacterium smegmatis. Nature of the experiment: Antibacterial activity against Mycobacterium smegmatis ATCC 607 by agar-dilution streak method. The format is functional.
Experiment [6] has as its system Candida albicans. The experiment can be described thus: Antifungal activity against Candida albicans ATCC 10231 at 100 mcg/ml by agar-dilution streak method. The format is functional, organism-based.
Experiment [7] deals with Mycolicibacterium smegmatis. Nature of the experiment: Antibacterial activity against Mycobacterium smegmatis ATCC 607 at 100 mcg/ml by agar-dilution streak method. It is filed as functional.
For experiment [8], the system named is Staphylococcus aureus. The experiment can be described thus: Antibacterial activity against Staphylococcus aureus ATCC 13709 at 100 mcg/ml by agar-dilution streak method. The format is functional, organism-based.
Experiment [9] deals with Escherichia coli. Nature of the experiment: Antibacterial activity against Escherichia coli ATCC 9637 by agar-dilution streak method. The format is functional.
In experiment [10] the test system is Candida albicans. Nature of the experiment: Antifungal activity against Candida albicans ATCC 10231 by agar-dilution streak method. The format is functional.
In experiment [11] the test system is Salmonella enterica subsp. enterica serovar Gallinarum. The experiment can be described thus: Antibacterial activity against Salmonella gallinarum ATCC 9184 by agar-dilution streak method. The format is functional.
Experiment [12] deals with Klebsiella pneumoniae. Nature of the experiment: Antibacterial activity against Klebsiella pneumoniae ATCC 10031 by agar-dilution streak method. It is filed as functional.

Regarding `CC(C)=CCc1cc([C@H]2Oc3c(ccc(O)c3CC=C(C)C)C(=O)[C@@H]2O)ccc1O`, the MIC (with Staphylococcus aureus [1]; in [5]) was 6.25 µg/mL (≈ 15.3 µM) each time. Further, the result (in the experiment with Escherichia coli [2]; in experiment [3]; in the experiment on Klebsiella pneumoniae [4]; in the experiment on Candida albicans [6]) was inactive.

Turning to `COc1c(O)ccc([C@@H]2COc3c(ccc4c3C=CC(C)(C)O4)C2)c1O`, in the experiment on Staphylococcus aureus [1], the lowest concentration to inhibit growth (MIC) was 50 µg/mL (≈ 141 µM). The outcome (in the experiment with Escherichia coli [2]; in [3]; with Klebsiella pneumoniae [4]; in experiment [7]; with Candida albicans [6]) was inactive.

Take `COc1ccc([C@@H]2COc3c(ccc4c3C=CC(C)(C)O4)C2)c(O)c1`: the MIC turned out to be 6.25 µg/mL (≈ 18.5 µM) in the experiment on Staphylococcus aureus [1] and 3.12 µg/mL (≈ 9.22 µM) in experiment [5]. Moreover, the outcome (with Escherichia coli [2]; in experiment [3]; in the experiment with Klebsiella pneumoniae [4]; with Candida albicans [6]) was inactive.

In the case of `COc1ccc(-c2coc3cc(O)ccc3c2=O)cc1`, the outcome (with Staphylococcus aureus [8]; in the experiment on Escherichia coli [2]; in [3]; in the experiment with Klebsiella pneumoniae [4]; in [7]; with Candida albicans [6]) was inactive.

On to `CC1(C)C=Cc2c(O)ccc(C3=Cc4ccc(O)cc4OC3)c2O1` [GLABRENE], for which the minimal inhibitory concentration (MIC) (in the experiment on Staphylococcus aureus [1]; in [5]) was 25 µg/mL (≈ 77.6 µM) each time. Further, the result (in the experiment with Escherichia coli [2]; in [3]; with Klebsiella pneumoniae [4]; in the experiment with Candida albicans [6]) was inactive.

For the molecule `CC1(C)C=Cc2c(ccc3c2OC[C@@H](c2ccc(O)cc2O)C3)O1` [GLABRIDIN], the MIC was determined as 6.25 µg/mL (≈ 19.3 µM) in the experiment on Staphylococcus aureus [1], 6.25 µg/mL (≈ 19.3 µM) in [5] and 25 µg/mL (≈ 77.1 µM) in the experiment on Candida albicans [10]. The result (with Staphylococcus aureus [8]; in the experiment on Escherichia coli [2]; with Escherichia coli [9]; in [3]; in the experiment on Klebsiella pneumoniae [4]) was inactive.

As to `CC(C)=CCc1cc([C@@H]2CC(=O)c3ccc(O)c(CC=C(C)C)c3O2)ccc1O` [GLABROL], the MIC (in the experiment on Staphylococcus aureus [1]; in [5]) was 1.56 µg/mL (≈ 3.97 µM) in each case. The outcome (with Escherichia coli [2]; in experiment [3]; in the experiment on Klebsiella pneumoniae [4]; in the experiment on Candida albicans [6]) was inactive.

In the case of `CC(C)=CCc1c(O)ccc([C@@H]2COc3c(ccc4c3C=CC(C)(C)O4)C2)c1O` [HISPAGLABRIDIN A], the MIC (in the experiment on Staphylococcus aureus [1]; in [5]) was 3.12 µg/mL (≈ 7.95 µM) in each case. For the same molecule, the outcome (in the experiment on Escherichia coli [2]; in [3]; in the experiment on Klebsiella pneumoniae [4]; in the experiment on Candida albicans [6]) was inactive.

For `CC1(C)C=Cc2c(ccc([C@@H]3COc4c(ccc5c4C=CC(C)(C)O5)C3)c2O)O1` [HISPAGLABRIDIN B], the values for the MIC (in the experiment with Staphylococcus aureus [1]; in experiment [5]) were 6.25 µg/mL (≈ 16 µM) and 3.12 µg/mL (≈ 7.99 µM), respectively. The outcome (in the experiment with Escherichia coli [2]; in [3]; with Klebsiella pneumoniae [4]; in the experiment on Candida albicans [6]) was inactive.

As to `CC1(C)C=Cc2c(ccc([C@@H]3COc4cc(O)ccc4C3)c2O)O1` [PHASEOLLINISOFLAVAN], the MIC against Staphylococcus aureus [1] turned out to be 25 µg/mL (≈ 77.1 µM); in [7], 12.5 µg/mL (≈ 38.5 µM). The result (in the experiment with Escherichia coli [2]; in [3]; in the experiment with Klebsiella pneumoniae [4]; with Candida albicans [6]) was inactive.

Regarding `CN[C@@H]1[C@H](O[C@H]2[C@H](O[C@H]3[C@H](O)[C@@H](O)[C@H](N=C(N)N)[C@@H](O)[C@@H]3N=C(N)N)O[C@@H](C)[C@]2(O)C=O)O[C@@H](CO)[C@H](O)[C@H]1O.CN[C@@H]1[C@H](O[C@H]2[C@H](O[C@H]3[C@H](O)[C@@H](O)[C@H](N=C(N)N)[C@@H](O)[C@@H]3N=C(N)N)O[C@@H](C)[C@]2(O)C=O)O[C@@H](CO)[C@H](O)[C@H]1O.O=S(=O)(O)O.O=S(=O)(O)O.O=S(=O)(O)O` [STREPTOMYCIN SULFATE], the MIC against Staphylococcus aureus [1] amounted to 5 µg/mL; against Escherichia coli [9], 5 µg/mL; in [11] it was 50 µg/mL; against Klebsiella pneumoniae [12], 2.5 µg/mL; in [5], 1.25 µg/mL. For the same molecule, in the experiment with Candida albicans [6], the result was inactive.
